Experiments:
[1] = Critical micelle concentration by surface tension measurement; assay type: physicochemical; conditions: in pure water
Protocol: Table 1 compares the structural features and physicochemical properties of L-SUV and L-SUVV. The critical micelle concentration (“CMC”) for both chiral surfactants was measured by following a linear decrease in surface tension as surfactant concentration increased, up to a point. After this point, no appreciable change in surface tension was observed. The point of intersection of the two lines (the linear decrease and the flat line thereafter) was taken as the CMC of the surfactants. The greater hydrophobicity of L-SUVV compared to L-SUV gave the former a lower CMC. In addition, an increase in the molecular weight decreased the mobility of L-SUVV toward the injector end. Thus, L-SUVV eluted faster than L-SUV, as it was carried more rapidly by bulk electroosmotic flow (EOF) towards the detection window.
All surfactants in this study were synthesized according to the procedure of Wang, J.; Warner, I. M. Anal. Chem. 1994, 66, 3773-3776. […] The critical micelle concentrations of the surfactants were determined by surface tension measurements as previously described. […] These numbers were calculated from average molecular weights as determined by ultracentrifugation. All monomers and polymers used in this study were 99% pure or better, as determined from elemental analysis.

[2] = Effective electrophoretic mobility by capillary zone electrophoresis/indirect photometric detection; assay type: physicochemical; conditions: 100 mM boric acid and 5 mM Na2B4O7, pH 8.0; NMS light-absorbing electrolyte
[3] = cited from earlier work

Substance	critical micelle concentration (CMC) [1] [mM]	effective electrophoretic mobility (μep) [2]	pKa [3]
sodium N-undecylenyl-L-valine-L-valine [L-U-Val-Val]	10	−1.2 × 10^−4 cm^−2 V^−1 s^−1	–
tris (hydroxymethyl)aminomethane	–	–	around 8

— patent US6849722B2, “Polymerized oligopeptide-surfactant chiral micelles” (Board of Supervisors of Louisiana State University and …, priority 1998, dated 2005)
